Measured values from patent publication US9434743B2, “Indazole derivatives” (TAKEDA PHARMACEUTICAL COMPANY LIMITED, priority 2012, dated 2016).

Legend:
[1] = target: T1, human MetAP2 enzyme (Homo sapiens, UniProt P50579); assay: MetAP2 enzyme assay, enzyme complexed with cobalt ions; details: MetAP2 Co pIC50, MetAP2 enzyme complexed with cobalt ions; Met-AMC substrate at Km
Protocol: DNA encoding the full-length sequence of human MetAP2 enzyme is amplified by PCR and cloned into a pFastBac expression vector (Invitrogen). Recombinant baculovirus incorporating the MetAP2 construct is generated by transposition using the Bac-to-Bac system (Invitrogen). The expression of recombinant protein is carried out by infection of Spodoptera frugiperda Sf9 cells (Invitrogen) in 5 L Wave Bioreactors (Wave Biotech). Recombinant protein is isolated from cellular extracts by binding to an SP Hitrap Fast Flow or SP Sepharose (Sigma) column, and the protein is eluted using a NaCl gradient. Partially purified extracts of MetAP2 are further purified by an AKTA FPLC over a Superdex-200 column (GE). The purity of MetAP2 protein is determined on denaturing SDS-PAGE gel.
The results for each well are expressed as percent inhibition and calculated using the equation:

[2] = target: T1, human MetAP2 enzyme; assay: MetAP2 enzyme assay, enzyme complexed with manganese ions; details: MetAP2 Mn pIC50, MetAP2 enzyme complexed with manganese ions; Met-AMC substrate at Km

T1 sequence (P50579 whole entry): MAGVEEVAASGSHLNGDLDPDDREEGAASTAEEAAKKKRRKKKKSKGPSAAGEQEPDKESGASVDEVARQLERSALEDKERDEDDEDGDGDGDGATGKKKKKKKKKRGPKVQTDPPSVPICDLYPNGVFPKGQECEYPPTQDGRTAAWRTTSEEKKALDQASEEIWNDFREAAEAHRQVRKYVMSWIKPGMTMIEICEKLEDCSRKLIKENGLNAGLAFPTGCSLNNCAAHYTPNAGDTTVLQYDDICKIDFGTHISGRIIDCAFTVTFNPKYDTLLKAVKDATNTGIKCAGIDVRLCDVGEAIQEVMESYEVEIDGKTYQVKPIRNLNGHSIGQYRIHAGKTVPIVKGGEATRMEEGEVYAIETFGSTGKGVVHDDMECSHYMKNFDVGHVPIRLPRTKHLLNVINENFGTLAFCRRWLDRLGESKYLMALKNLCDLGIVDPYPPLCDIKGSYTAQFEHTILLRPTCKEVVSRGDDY

Work on `Cc1nc(C(N)=O)ccc1-c1cc(C(F)(F)F)cc2[nH]ncc12` [Example 379, 6-methyl-5-(6-(trifluoromethyl)-1H-indazol-4-yl)picolinamide] yielded an IC50 [1] of 39.8 nM and an IC50 [2] of 6.31 nM.

`FC(F)(F)c1cc(-c2cnn3ccccc23)c2cn[nH]c2c1` [Example 41, 4-(pyrazolo[1,5-a]pyridin-3-yl)-6-(trifluoromethyl)-1H-indazole] was tested, and the IC50 [1] was 25.1 nM and the IC50 [2] was 6.31 nM.

For `Cc1nc(C)c(-c2cc(C(F)(F)F)cc3[nH]ncc23)s1` [Example 40, 2,4-dimethyl-5-(6-(trifluoromethyl)-1H-indazol-4-yl)thiazole], the IC50 [1] was 39.8 nM and the IC50 [2] was 10 nM.

Work on `FC(F)(F)c1cc(-c2cnn(Cc3cccnc3)c2)c2cn[nH]c2c1` [Example 96, 4-(1-(pyridin-3-ylmethyl)-1H-pyrazol-4-yl)-6-(trifluoromethyl)-1H-indazole] yielded an IC50 [1] of 39.8 nM and an IC50 [2] of 5.01 nM.

Work on `FC(F)(F)c1cc(-c2cnc3ccccn23)c2cn[nH]c2c1` [Example 149, 4-(imidazo[1,2-a]pyridin-3-yl)-6-(trifluoromethyl)-1H-indazole] yielded an IC50 [1] of 501 nM and an IC50 [2] of 63.1 nM.

For `Cc1nc(N)nc(C)c1-c1cc(C(F)(F)F)cc2[nH]ncc12` [Example 190, 4,6-dimethyl-5-(6-(trifluoromethyl)-1H-indazol-4-yl)pyrimidin-2-amine], the IC50 [1] was 200 nM and the IC50 [2] was 39.8 nM.

In the case of `Cn1ncc2cc(-c3cc(C(F)(F)F)cc4[nH]ncc34)ccc21` [Example 36, 1′-methyl-6-(trifluoromethyl)-1H,1′H-4,5′-biindazole], the IC50 [1] is reported as 25.1 nM and the IC50 [2] is reported as 6.31 nM.

With `FC(F)(F)c1cc(-c2cnc3[nH]ccc3c2)c2cn[nH]c2c1` [Example 59, 4-(1H-pyrrolo[2,3-b]pyridin-5-yl)-6-(trifluoromethyl)-1H-indazole] the IC50 [1] was 79.4 nM and the IC50 [2] was 12.6 nM.

`COc1ncc(-c2cc(C(F)(F)F)cc3[nH]ncc23)cc1C(=O)NCCO` [Example 229, N-(2-hydroxyethyl)-2-methoxy-5-(6-(trifluoromethyl)-1H-indazol-4-yl)nicotinamide] gave an IC50 [1] of 63.1 nM and an IC50 [2] of 6.31 nM.

`Cc1ccc(C(=O)N2CC(O)C2)cc1-c1cc(C(F)(F)F)cc2[nH]ncc12` [Example 369, (3-hydroxyazetidin-1-yl)(4-methyl-3-(6-(trifluoromethyl)-1H-indazol-4-yl)phenyl)methanone] gave an IC50 [1] of 31.6 nM and an IC50 [2] of 10 nM.

`CN1CCN(C(=O)c2cccc(-c3cc(C(F)(F)F)cc4[nH]ncc34)c2)CC1` [Example 84, (4-methylpiperazin-1-yl)(3-(6-(trifluoromethyl)-1H-indazol-4-yl)phenyl)methanone] gave an IC50 [1] of 20 nM and an IC50 [2] of 3.16 nM.

`N#Cc1ccccc1-c1cc(C(F)(F)F)cc2[nH]ncc12` [Example 52, 2-(6-(trifluoromethyl)-1H-indazol-4-yl)benzonitrile] was tested, and the IC50 [1] was 126 nM and the IC50 [2] was 12.6 nM.

In the case of `COc1ccncc1-c1cc(C(F)(F)F)cc2[nH]ncc12` [Example 30, 4-(4-methoxypyridin-3-yl)-6-(trifluoromethyl)-1H-indazole], the IC50 [1] is reported as 79.4 nM and the IC50 [2] is reported as 25.1 nM.

`NC(=O)c1ccc(-c2cc(C(F)(F)F)cc3[nH]ncc23)cc1` [Example 7, 4-(6-(trifluoromethyl)-1H-indazol-4-yl)benzamide] was tested, and the IC50 [1] was 25.1 nM and the IC50 [2] was 5.01 nM.

For `CC(=O)Nc1ccc(-c2cc(C(F)(F)F)cc3[nH]ncc23)c(C)n1` [Example 178, N-(6-methyl-5-(6-(trifluoromethyl)-1H-indazol-4-yl)pyridin-2-yl)acetamide], the IC50 [1] was 31.6 nM and the IC50 [2] was 7.94 nM.

`COc1nc(C(=O)N2CC(O)C2)ccc1-c1cc(C(F)(F)F)cc2[nH]ncc12` [Example 395, (3-hydroxyazetidin-1-yl)(6-methoxy-5-(6-(trifluoromethyl)-1H-indazol-4-yl)pyridin-2-yl)methanone] showed an IC50 [1] of 31.6 nM and an IC50 [2] of 6.31 nM.

Work on `Cn1cc(-c2cc(C(F)(F)F)cc3[nH]ncc23)c(=O)n(CCN2CCOCC2)c1=O` [Example 313, 1-methyl-3-(2-morpholinoethyl)-5-(6-(trifluoromethyl)-1H-indazol-4-yl)pyrimidine-2,4(1H,3H)-dione] yielded an IC50 [1] of 1580 nM and an IC50 [2] of 25.1 nM.

`Cn1cnc2ccc(-c3cc(C(F)(F)F)cc4[nH]ncc34)cc21` [Example 64, 4-(1-methyl-1H-benzo[d]imidazol-6-yl)-6-(trifluoromethyl)-1H-indazole] showed an IC50 [1] of 31.6 nM and an IC50 [2] of 10 nM.

`N#Cc1cccc(-c2cc(C(F)(F)F)cc3[nH]ncc23)c1` [Example 33, 3-(6-(trifluoromethyl)-1H-indazol-4-yl)benzonitrile] was tested, and the IC50 [1] was 100 nM and the IC50 [2] was 10 nM.

`FC(F)(F)c1cc(-c2cnc(N3CCOCC3)cn2)c2cn[nH]c2c1` [Example 94, 4-(5-(6-(trifluoromethyl)-1H-indazol-4-yl)pyrazin-2-yl)morpholine] showed an IC50 [1] of 63.1 nM and an IC50 [2] of 3.16 nM.

In the case of `FC(F)(F)c1cc(-c2cncc3ccccc23)c2cn[nH]c2c1` [Example 111, 4-(6-(trifluoromethyl)-1H-indazol-4-yl)isoquinoline], the IC50 [1] is reported as 50.1 nM and the IC50 [2] is reported as 15.8 nM.

Work on `Cc1nn(C(F)F)c(C)c1-c1cc(C(F)(F)F)cc2[nH]ncc12` [Example 348, 4-(1-(difluoromethyl)-3,5-dimethyl-1H-pyrazol-4-yl)-6-(trifluoromethyl)-1H-indazole] yielded an IC50 [1] of 79.4 nM and an IC50 [2] of 12.6 nM.

`COc1cccnc1-c1cc(C(F)(F)F)cc2[nH]ncc12` [Example 213, 4-(3-methoxypyridin-2-yl)-6-(trifluoromethyl)-1H-indazole] gave an IC50 [1] of 631 nM and an IC50 [2] of 79.4 nM.

Work on `Cc1nn(C)c(C(N)=O)c1-c1cc(C(F)(F)F)cc2[nH]ncc12` [Example 327, 1,3-dimethyl-4-(6-(trifluoromethyl)-1H-indazol-4-yl)-1H-pyrazole-5-carboxamide] yielded an IC50 [1] of 631 nM and an IC50 [2] of 63.1 nM.

For `COc1cc(-c2cc(C(F)(F)F)cc3[nH]ncc23)c(OC)nn1` [Example 248, 4-(3,6-dimethoxypyridazin-4-yl)-6-(trifluoromethyl)-1H-indazole], the IC50 [1] was 63.1 nM and the IC50 [2] was 5.01 nM.

Compound `COc1cccc(-c2cc(C(F)(F)F)cc3[nH]ncc23)n1` [Example 91, 4-(6-methoxypyridin-2-yl)-6-(trifluoromethyl)-1H-indazole] has an IC50 [1] of 200 nM and an IC50 [2] of 6.31 nM.

`CN(C)CCOc1ccc(-c2cc(C(F)(F)F)cc3[nH]ncc23)cc1` [Example 280, N,N-dimethyl-2-(4-(6-(trifluoromethyl)-1H-indazol-4-yl)phenoxy)ethanamine] gave an IC50 [1] of 31.6 nM and an IC50 [2] of 6.31 nM.

Compound `NC(=O)Cc1cccc(-c2cc(C(F)(F)F)cc3[nH]ncc23)c1` [Example 38, 2-(3-(6-(trifluoromethyl)-1H-indazol-4-yl)phenyl)acetamide] has an IC50 [1] of 50.1 nM and an IC50 [2] of 10 nM.

`Cn1ncc(-c2cc(C(F)(F)F)cc3[nH]ncc23)c1N` [Example 165, 1-methyl-4-(6-(trifluoromethyl)-1H-indazol-4-yl)-1H-pyrazol-5-amine] was tested, and the IC50 [1] was 1000 nM and the IC50 [2] was 63.1 nM.

With `O=C(NCCO)c1ccc(-c2cc(C(F)(F)F)cc3[nH]ncc23)cc1F` [Example 109, 2-fluoro-N-(2-hydroxyethyl)-4-(6-(trifluoromethyl)-1H-indazol-4-yl)benzamide] the IC50 [1] was 50.1 nM and the IC50 [2] was 3.16 nM.

`CC(C)(C)C(=O)Nc1ncccc1-c1cc(C(F)(F)F)cc2[nH]ncc12` [Example 73, N-(3-(6-(trifluoromethyl)-1H-indazol-4-yl)pyridin-2-yl)pivalamide] showed an IC50 [1] of 200 nM and an IC50 [2] of 79.4 nM.

Work on `FC(F)(F)c1cc(-c2cccc3c2OCO3)c2cn[nH]c2c1` [Example 27, 4-(benzo[d][1,3]dioxol-4-yl)-6-(trifluoromethyl)-1H-indazole] yielded an IC50 [1] of 126 nM and an IC50 [2] of 15.8 nM.

For `Nc1ncccc1-c1cc(C(F)(F)F)cc2[nH]ncc12` [Example 78, 3-(6-(trifluoromethyl)-1H-indazol-4-yl)pyridin-2-amine], the IC50 [1] was 100 nM and the IC50 [2] was 5.01 nM.

`CC(C)CNC(=O)c1cccc(-c2cc(C(F)(F)F)cc3[nH]ncc23)c1` [Example 28, N-isobutyl-3-(6-(trifluoromethyl)-1H-indazol-4-yl)benzamide] gave an IC50 [1] of 158 nM and an IC50 [2] of 25.1 nM.

For `COc1ccc(-c2cc(C(F)(F)F)cc3[nH]ncc23)c(C)n1` [Example 249, 4-(6-methoxy-2-methylpyridin-3-yl)-6-(trifluoromethyl)-1H-indazole], the IC50 [1] was 79.4 nM and the IC50 [2] was 12.6 nM.

`CNC(=O)Cn1c(=O)c(-c2cc(C(F)(F)F)cc3[nH]ncc23)cn(C)c1=O` [Example 301, N-methyl-2-(3-methyl-2,6-dioxo-5-(6-(trifluoromethyl)-1H-indazol-4-yl)-2,3-dihydropyrimidin-1(6H)-yl)acetamide] was tested, and the IC50 [1] was 1000 nM and the IC50 [2] was 15.8 nM.

`Cc1ccc(C(=O)N2CCC(O)CC2)cc1-c1cc(C(F)(F)F)cc2[nH]ncc12` [Example 372, (4-hydroxypiperidin-1-yl)(4-methyl-3-(6-(trifluoromethyl)-1H-indazol-4-yl)phenyl)methanone] showed an IC50 [1] of 100 nM and an IC50 [2] of 31.6 nM.

`Cc1nn(C)c2cc(-c3cc(C(F)(F)F)cc4[nH]ncc34)ccc12` [Example 67, 1′,3′-dimethyl-6-(trifluoromethyl)-1H,1′H-4,6′-biindazole] was tested, and the IC50 [1] was 20 nM.

Compound `Cc1nn(C)c2cc(-c3cc(C(F)(F)F)cc4[nH]ncc34)ccc12` [Example 68, 1′,3′-dimethyl-6-(trifluoromethyl)-1H,1′H-4,6′-biindazole] has an IC50 [1] of 25.1 nM.

In the case of `Cc1c(-c2cc(C(F)(F)F)cc3[nH]ncc23)cnn1-c1ccccc1` [Example 70, 4-(5-methyl-1-phenyl-1H-pyrazol-4-yl)-6-(trifluoromethyl)-1H-indazole], the IC50 [1] is reported as 39.8 nM.

With `Cc1c(-c2cc(C(F)(F)F)cc3[nH]ncc23)cnn1-c1ccccc1` [Example 71, 4-(5-methyl-1-phenyl-1H-pyrazol-4-yl)-6-(trifluoromethyl)-1H-indazole] the IC50 [1] was 100 nM.
